Results on 13 molecules are retold here after PubChem BioAssay (NCI).

Among the test systems are OVCAR-5 ovarian; U251 CNS; NCI-H23 lung; HOP-62 NSCLC; HOP-92 NSCLC; LOX IMVI melanoma; HT29 colon; HCC-2998 colon; HCT-15 colon; EKVX NSCLC; SN12C renal; UACC-62 melanoma; UACC-257 melanoma; K-562 leukemia; SR leukemia; TK-10 renal; SK-MEL-5 melanoma; MALME-3M melanoma; PC-3 prostate; MDA-N.
Test in all cases: DTP human tumour cell line panel, 48 h

The term TGI denotes the concentration giving total growth inhibition.

Structures are written as SMILES.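 Protocol summary: plate cells (96-well), add compound at 5 concentrations, incubate 48 h, interpolate endpoints linearly. TGI: concentration producing complete growth inhibition.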

On to `CC(=O)NNc1nc(C)c(C(=O)NNC(=O)C(=O)Nc2c(C)cccc2C(C)(C)C)s1`, for which the TGI in the assay with OVCAR-5 ovarian, with U251 CNS, in the assay on NCI-H23 lung, in the assay on HOP-62 NSCLC, in the assay on HOP-92 NSCLC and with LOX IMVI melanoma was more than 100 µM in each case. For the same molecule, the concentration for total growth inhibition (TGI) in the assay on HT29 colon, in the assay with HCC-2998 colon, in the assay on HCT-15 colon, with EKVX NSCLC, in the assay with SN12C renal and in the assay with UACC-62 melanoma was more than 100 µM in each case. For the same molecule, the concentration for total growth inhibition (TGI) in the assay with UACC-257 melanoma, in the assay with K-562 leukemia, in the assay with SR leukemia, with TK-10 renal and with SK-MEL-5 melanoma was more than 100 µM each time.
`COC(=O)C1=C(C)N2CCOC2CC1c1ccccc1` (configuration not stated): the TGI with NCI-H23 lung, in the assay with HOP-62 NSCLC, in the assay on HOP-92 NSCLC, in the assay on HT29 colon, with HCC-2998 colon and with EKVX NSCLC was more than 100 µM throughout. The TGI in the assay with UACC-62 melanoma, in the assay on UACC-257 melanoma, in the assay with K-562 leukemia, with SR leukemia, in the assay on TK-10 renal and in the assay on SK-MEL-5 melanoma was more than 100 µM throughout.
With `C[N+](C)=c1nc(N2CCc3ccccc3C2)ss1`, the TGI in the assay with U251 CNS, with HOP-62 NSCLC, in the assay with HCC-2998 colon, with HCT-15 colon, with MALME-3M melanoma and in the assay on SN12C renal was more than 100 µM in each case. The TGI in the assay on UACC-62 melanoma, with UACC-257 melanoma, with K-562 leukemia, in the assay on SR leukemia, in the assay with TK-10 renal and in the assay on SK-MEL-5 melanoma was more than 100 µM in each case.
`COc1cc(C(=O)Nc2cc(C(N)=O)cc(OC)c2OC)cc(NC(=O)/C=C/c2ccccc2)c1OC`: the TGI in the assay with OVCAR-5 ovarian, in the assay on NCI-H23 lung, with PC-3 prostate, in the assay on HOP-92 NSCLC, in the assay with HT29 colon and with MDA-N was more than 100 µM throughout. Also, the TGI was more than 100 µM in the assay with HCT-15 colon; more than 100 µM in the assay with EKVX NSCLC; 64 µM in the assay with MALME-3M melanoma; 85.6 µM in the assay with SN12C renal; 35.6 µM with UACC-62 melanoma; more than 100 µM in the assay on UACC-257 melanoma. Also, the TGI with K-562 leukemia, with SR leukemia and in the assay with TK-10 renal was more than 100 µM in each case.
On to `CNCCC=C1c2ccccc2CCc2ccccc21`, for which the TGI came to 30.2 µM with OVCAR-5 ovarian; 27.6 µM in the assay with U251 CNS; 29.9 µM with NCI-H23 lung; 28.2 µM with HOP-62 NSCLC; 27.4 µM in the assay on PC-3 prostate; 28.8 µM in the assay with HOP-92 NSCLC. Further, the concentration for total growth inhibition (TGI) in the assay on LOX IMVI melanoma was 26.7 µM; in the assay on HT29 colon, 16.1 µM; with MDA-N, 29 µM; in the assay with HCT-15 colon, 32.3 µM; in the assay on EKVX NSCLC, 29.2 µM; with MALME-3M melanoma it was 30.3 µM. Moreover, the total growth inhibition concentration (TGI) worked out at 29.2 µM with SN12C renal; 28.3 µM in the assay with UACC-62 melanoma; 19.9 µM in the assay with UACC-257 melanoma; 30.5 µM with K-562 leukemia; 32.7 µM in the assay with SR leukemia; 28 µM with TK-10 renal. This molecule returned a TGI with SK-MEL-5 melanoma of 25.5 µM.
`CN(C)CCN(C(=Nc1ccccc1)N1CCCC1)c1ccccc1`: the TGI with OVCAR-5 ovarian, in the assay on U251 CNS, with NCI-H23 lung, with HOP-62 NSCLC, in the assay on PC-3 prostate and in the assay on HOP-92 NSCLC was more than 100 µM each time. The total growth inhibition concentration (TGI) with LOX IMVI melanoma was more than 100 µM; with HT29 colon, 92.4 µM; with MDA-N it was 86.6 µM; in the assay on HCT-15 colon, more than 100 µM; in the assay with EKVX NSCLC, more than 100 µM; with MALME-3M melanoma, more than 100 µM. Besides, the TGI with SN12C renal, with UACC-62 melanoma, in the assay on UACC-257 melanoma, in the assay with K-562 leukemia, in the assay on SR leukemia and in the assay with TK-10 renal was more than 100 µM in each case. The molecule also registered a TGI in the assay on SK-MEL-5 melanoma of more than 100 µM.
As for `C/C(=N\NC(=S)NCc1ccccc1)c1nc2ncccc2[nH]1`, the TGI with OVCAR-5 ovarian was found to be 30.2 µM; in the assay with U251 CNS it was 19.4 µM; in the assay on NCI-H23 lung, 40.8 µM; in the assay on HOP-62 NSCLC, 26.2 µM; in the assay with PC-3 prostate it was 50.2 µM; in the assay with HOP-92 NSCLC it was 22.5 µM. For the same molecule, the TGI with LOX IMVI melanoma came to 21.4 µM; in the assay on HT29 colon, 12.8 µM; in the assay with MDA-N it was 26.8 µM; in the assay with HCC-2998 colon it was 68.4 µM; in the assay on HCT-15 colon it was 37.2 µM; in the assay with EKVX NSCLC it was 8.51 µM. Moreover, the TGI was 34.6 µM in the assay with MALME-3M melanoma; more than 100 µM with SN12C renal; 27.1 µM with UACC-62 melanoma; 22.1 µM in the assay with UACC-257 melanoma; 41.5 µM with K-562 leukemia; more than 100 µM with SR leukemia. For the same molecule, the TGI with TK-10 renal stood at 73.4 µM; in the assay with SK-MEL-5 melanoma it was 14.6 µM.
Take `O=C(CCN1CCOCC1)C(=Cc1ccccc1)C(=O)CCN1CCOCC1`: the TGI amounted to 33.6 µM in the assay on OVCAR-5 ovarian; 28.4 µM in the assay with U251 CNS; 7.92 µM in the assay with NCI-H23 lung; 37.5 µM in the assay with HOP-62 NSCLC; 4.06 µM with HOP-92 NSCLC; 4.29 µM in the assay with LOX IMVI melanoma. Also, the TGI in the assay on HT29 colon was found to be 8.35 µM; in the assay on HCC-2998 colon it was 26.9 µM; with HCT-15 colon, 4.74 µM; in the assay with EKVX NSCLC, 5.59 µM; in the assay on MALME-3M melanoma it was 4.64 µM; in the assay on SN12C renal, 7.45 µM. Further, the TGI in the assay with UACC-62 melanoma worked out at 6.19 µM; in the assay on UACC-257 melanoma it was 3.5 µM; in the assay with K-562 leukemia, 2.15 µM; in the assay with SK-MEL-5 melanoma, 18.2 µM.
As for `COc1cc2oc(=O)ccc2cc1CC=C(C)C`, the TGI with OVCAR-5 ovarian was more than 100 µM; with U251 CNS, more than 100 µM; in the assay on NCI-H23 lung, more than 100 µM; in the assay on HOP-62 NSCLC, more than 100 µM; in the assay with PC-3 prostate, more than 100 µM; in the assay with HOP-92 NSCLC, 69 µM. The concentration for total growth inhibition (TGI) with LOX IMVI melanoma was more than 100 µM; in the assay with HT29 colon it was 77.7 µM; in the assay on MDA-N, more than 100 µM; with HCC-2998 colon, more than 100 µM; with EKVX NSCLC, more than 100 µM; with MALME-3M melanoma, more than 100 µM. Further, the TGI in the assay on SN12C renal is more than 100 µM; with UACC-257 melanoma, more than 100 µM; in the assay with K-562 leukemia, more than 100 µM; in the assay on SR leukemia, 57.4 µM; in the assay with TK-10 renal it was 97.5 µM; in the assay on SK-MEL-5 melanoma, 73.7 µM.
As for `CN(C)Cc1cc(C(C)(C)C)cc(C2CCCCC2)c1O`, the TGI amounted to 34.9 µM in the assay on OVCAR-5 ovarian; 27.4 µM in the assay with U251 CNS; 72.2 µM with NCI-H23 lung; 40 µM in the assay with HOP-62 NSCLC; 26.4 µM with PC-3 prostate; 28.5 µM with LOX IMVI melanoma. Moreover, the TGI amounted to 13.5 µM in the assay with HT29 colon; 28.6 µM with HCT-15 colon; 24.1 µM in the assay on EKVX NSCLC; 17.9 µM in the assay with MALME-3M melanoma; 29.9 µM in the assay on SN12C renal; 29.8 µM in the assay on UACC-62 melanoma. The concentration for total growth inhibition (TGI) in the assay with UACC-257 melanoma turned out to be 21.8 µM; in the assay with K-562 leukemia it was 24.5 µM; in the assay on SR leukemia, 25.6 µM; in the assay with TK-10 renal, 29.1 µM; in the assay on SK-MEL-5 melanoma, 27.4 µM.
With `CCN(CC)CCN(C(=O)c1ccc(F)cc1)c1ccccc1N`, the TGI with OVCAR-5 ovarian, in the assay on U251 CNS, with NCI-H23 lung, in the assay with HOP-62 NSCLC, in the assay with PC-3 prostate and in the assay with LOX IMVI melanoma was more than 10 µM in each case. Further, the TGI with HT29 colon, in the assay on MDA-N, in the assay with HCC-2998 colon, in the assay on HCT-15 colon, in the assay on EKVX NSCLC and in the assay on MALME-3M melanoma was more than 10 µM throughout. Also, the TGI in the assay on SN12C renal, with UACC-62 melanoma, in the assay with K-562 leukemia, with SR leukemia, in the assay with TK-10 renal and in the assay on SK-MEL-5 melanoma was more than 10 µM each time.
For `NCc1cc(O)c(O)c(O)c1`, the TGI in the assay with OVCAR-5 ovarian, with U251 CNS, in the assay on HOP-62 NSCLC, in the assay with HOP-92 NSCLC, in the assay on LOX IMVI melanoma and in the assay on HT29 colon was more than 100 µM throughout. Moreover, the TGI in the assay on HCT-15 colon, in the assay with EKVX NSCLC, with MALME-3M melanoma, in the assay on SN12C renal, in the assay with UACC-62 melanoma and with UACC-257 melanoma was more than 100 µM throughout. The TGI with K-562 leukemia, with SR leukemia, with TK-10 renal and in the assay on SK-MEL-5 melanoma was more than 100 µM each time.
Consider `O=C(N/N=C\C(F)(F)F)c1ccncc1`, for which the TGI was more than 100 µM with OVCAR-5 ovarian; more than 100 µM in the assay on U251 CNS; 50.6 µM in the assay on NCI-H23 lung; more than 100 µM in the assay on HOP-62 NSCLC; more than 100 µM in the assay with PC-3 prostate; more than 100 µM in the assay with HOP-92 NSCLC. Further, the TGI in the assay with LOX IMVI melanoma, in the assay with HT29 colon, with HCC-2998 colon, with HCT-15 colon, in the assay with MALME-3M melanoma and with SN12C renal was more than 100 µM each time. The TGI in the assay with UACC-62 melanoma, in the assay on UACC-257 melanoma, in the assay on K-562 leukemia, with SR leukemia, in the assay with TK-10 renal and in the assay with SK-MEL-5 melanoma was more than 100 µM in each case.
